# Laboratory results: paper PMC10046377, “Inhibitors of the Oncogenic PA2G4-MYCN Protein-Protein Interface” (Cancers, 2023)
# Tested on: SK-N-BE(2)-C cells
# Assay: Alamar Blue cell viability assay, SK-N-BE(2)-C
# Format: cell-based
# Details: Homo sapiens, MYCN amplified neuroblastoma cell line
# Text: (§1) The MYCN amplified neuroblastoma cell line SK-N-BE(2)-C was kindly provided by Professor June Biedler (Memorial Sloan Kettering Cancer Centre, New York, NY, USA), and Kelly was obtained from European Collection of Cell Cultures. The two normal lung fibroblast cell lines (MRC-5 and WI-38) were purchased from ATCC. SK-N-BE(2)-C shMYCN#2 doxycycline-inducible cell and Kelly shMYCN#2 doxycycline-inducible cell were custom-made by GenScript (Piscataway, NJ, USA). SK-N-BE(2)-C, SK-N-BE(2)-C shMYCN#2, and SHEP MYCN3 doxycycline-inducible cells were maintained in Dulbecco’s modified Eagle’s medium (DMEM) (Invitrogen, Life Technologies, Waltham, MA, USA) with 10% foetal calf serum (FCS). Kelly and Kelly shMYCN#2 doxycycline-inducible cell were cultured in Roswell Park Memorial Institute (RPMI) 1640 (Invitrogen, Life Technologies) with 10% FCS. MRC-5 and WI-38 were cultured in Alpha-MEM media (Invitrogen, Life Technologies) with 10% FCS. All cells were not cultured for more than 2 months. All used cell lines were authenticated by Cell Bank Australia (Westmead, NSW, Australia) as being free from mycoplasma, and cultured at 37 °C and 5% CO2 in a humidifier incubator.
# (§2) Cell viability was determined by the Alamar Blue assay (75 mg resazurin, 12.5 mg methylene blue, 164.5 mg potassium hexacyanoferrate (III), 211 mg potassium hexacyanoferrate (II) trihydrate in 500 mL of phosphate buffered saline). After 6 h incubation with Alamar Blue, the change of fluorescence was measured by Victor 3 multilabel Plate Reader (Perkin Elmer Australia, Melburne, Australia) at an excitation wavelength of 560 nm and an emission wavelength of 590 nm.
# (§3) We have shown that the PA2G4 protein increased the half-life of the oncoprotein MYCN through direct binding, and competitive chemical inhibition of this bond by WS6 reduced tumorigenicity both in vitro and in vivo [11]. […] Here, we explored the structure–activity relationship (SAR) of WS6 analogue compounds with the aim to increase efficacy and reduce toxicity. […] The in vitro cytotoxicity of these 14 compounds were measured by cell viability assays using Alamar Blue in MYCN amplified human neuroblastoma (SK-N-BE(2)-C and Kelly) cell lines compared to non-malignant (WI-38, MRC-5) myofibroblast cell lines (Figure 1B,C and Supplementary Figure S1A).
row,IC50 [µM],Compound
1,30,Cc1cccc(Oc2cc(N3CCC(C(=O)NCc4cccc(C(F)(F)F)c4)CC3)ncn2)c1C [#3567]
2,26.5,Cc1cccc(Oc2cc(N3CCC(C(=O)NCc4cccc(Br)c4)CC3)ncn2)c1C [#5333]
3,23.3,Cc1cccc(Oc2cc(N3CCC(C(=O)N[C@@H](C)CCc4ccccc4)CC3)ncn2)c1C [#5338]

# Tested on: Kelly cells
# Assay: Alamar Blue cell viability assay, Kelly
# Format: cell-based
# Details: Homo sapiens, MYCN amplified neuroblastoma cell line
# Text: as §1, §2, §3
row,Compound,IC50 [µM]
1,Cc1cccc(Oc2cc(N3CCC(C(=O)NCc4cccc(C(F)(F)F)c4)CC3)ncn2)c1C [#3567],29
2,Cc1cccc(Oc2cc(N3CCC(C(=O)NCc4cccc(Br)c4)CC3)ncn2)c1C [#5333],28.6
3,Cc1cccc(Oc2cc(N3CCC(C(=O)N[C@@H](C)CCc4ccccc4)CC3)ncn2)c1C [#5338],30

# Tested on: MRC-5 cells
# Assay: Alamar Blue cell viability assay, MRC-5 non-malignant myofibroblasts
# Format: cell-based
# Details: Homo sapiens, MRC5
# Text: as §1, §2, §3
row,Compound,IC50 [µM]
1,Cc1cccc(Oc2cc(N3CCC(C(=O)NCc4cccc(C(F)(F)F)c4)CC3)ncn2)c1C [#3567],80
2,Cc1cccc(Oc2cc(N3CCC(C(=O)NCc4cccc(Br)c4)CC3)ncn2)c1C [#5333],100
3,Cc1cccc(Oc2cc(N3CCC(C(=O)N[C@@H](C)CCc4ccccc4)CC3)ncn2)c1C [#5338],100

# Tested on: neuroblastoma cells (Kelly, SK-N-BE(2)-C) compared to non-malignant myofibroblasts (WI-38, MRC-5)
# Assay: Therapeutic window, neuroblastoma cells versus non-malignant myofibroblasts
# Format: cell-based, human
# Details: non-malignant myofibroblast IC50 versus neuroblastoma cell IC50
# Protocol: as §2, §3
row,Compound,Therapeutic window (fold difference) [fold]
1,Cc1cccc(Oc2cc(N3CCC(C(=O)NCc4cccc(C(F)(F)F)c4)CC3)ncn2)c1C [#3567],2.7
2,Cc1cccc(Oc2cc(N3CCC(C(=O)NCc4cccc(Br)c4)CC3)ncn2)c1C [#5333],3.6
3,Cc1cccc(Oc2cc(N3CCC(C(=O)N[C@@H](C)CCc4ccccc4)CC3)ncn2)c1C [#5338],3.8

# Tested on: MYCN
# Assay: Western blot of MYCN protein level
# Format: cell-based, human
# Details: Kelly and SK-N-BE(2)-C cells; #5333/#5338: 48 h, 10–30 μM
# Protocol: (§4) Protein was extracted from cell pellets using RIPA buffer (Sigma) with 10% protease inhibitor (Sigma, Sydney, Australia). Quantification of proteins was conducted using Pierce BCA protein assay kit (Thermo Scientific), according to manufacturer’s instructions. A total of 30–50 μg protein samples were loaded onto Criterion TGX 10% precast gel (Bio-Rad) or NuPAGE™ 4–12% Mini Protein Gel (Invitrogen, Life technologies) and transferred to a nitrocellulose membrane (Bio-Rad). The membrane was blocked in 5% skim milk in Tris-buffered saline with Tween-20 (20 mM Tris-HCl (pH 7.6), 137 mM NaCl, 0.1% Tween-20) for an hour before incubation at 4 °C overnight with the following primary antibodies: mouse anti-MYCN(1:2000, Santa-Cruz, Cat# sc-53993), rabbit anti-PA2G4 (1:2000, Atlas Antibodies, Cat# HPA016484), rabbit anti-PARP (1:1000, Cell Signalling Technologies, Danvers, MA, USA, Cat# 9542), rabbit anti-Caspase-3 (1:500, Cell Signalling Technologies, Cat# 9662), mouse anti-Bcl-2 (1:1000, Cell Signalling Technologies, Cat# 15071), rabbit anti-Bax (1:1000, Cell Signalling Technologies, Cat# 2772), mouse anti-Vinculin (1:2000, Sigma, Cat# V9131), mouse anti-GAPDH (1:2000, Santa-cruz, Cat# sc-365062), rabbit anti-β-actin (1:5000, Sigma, Cat# SAB2100037), rabbit anti-GATA2 (1:1000, Cell Signalling Technologies, Cat# 4595), mouse anti-Flag/DYKDDDDK tag (1:1000, Cell Signalling Technologies, Cat# 8146). Anti-mouse or anti-rabbit horseradish peroxidase secondary antibodies (1:5000, Life technologies, Cat# 31430, 31460) were added and incubated for 2 h at room temperature. Immunoblots were visualised by Clarity ECL reagent (Bio-Rad) and ChemiDoc MP Imaging System (Bio-Rad). Quantification of protein expression was measured by Image Lab software (Bio-Rad) and normalised to loading control.
# (§5) Next, we examined whether #5333 and #5338 treatment for 48 h affected the levels of WS6 target proteins, PA2G4, and MYCN in neuroblastoma cells. […] Cell viability was measured following #5333 and #5338 treatments for 48–72 h. […] Cell viability was measured following #5333, #5338, or WS6 treatments for 72 h.
row,Compound,MYCN protein levels (Western blot)
1,Cc1cccc(Oc2cc(N3CCC(C(=O)NCc4cccc(C(F)(F)F)c4)CC3)ncn2)c1C [#3567],significantly reduced
2,Cc1cccc(Oc2cc(N3CCC(C(=O)NCc4cccc(Br)c4)CC3)ncn2)c1C [#5333],significantly reduced MYCN levels
3,Cc1cccc(Oc2cc(N3CCC(C(=O)N[C@@H](C)CCc4ccccc4)CC3)ncn2)c1C [#5338],significantly reduced MYCN levels

# Tested on: PA2G4
# Assay: Western blot of PA2G4 protein level
# Format: cell-based, human
# Details: Kelly and SK-N-BE(2)-C cells; #5333/#5338: 48 h, seen more consistently at 30 μM, with the exception of #5333 in SK-N-BE(2)-C
# Protocol: as §4, §5
row,Compound,PA2G4 protein levels (Western blot)
1,Cc1cccc(Oc2cc(N3CCC(C(=O)NCc4cccc(C(F)(F)F)c4)CC3)ncn2)c1C [#3567],significantly reduced
2,Cc1cccc(Oc2cc(N3CCC(C(=O)NCc4cccc(Br)c4)CC3)ncn2)c1C [#5333],Reductions in PA2G4 levels
3,Cc1cccc(Oc2cc(N3CCC(C(=O)N[C@@H](C)CCc4ccccc4)CC3)ncn2)c1C [#5338],Reductions in PA2G4 levels
